In patent US6677307B2, “TGF-α polypeptides, functional fragments and methods of use therefor” (Kaleidos Pharma, Inc., priority 1999, dated 2004):

Tested on: mouse intestines
Test: histological examination of intestines of CP-treated mice
Type: in vivo
Protocol: The experiment procedure dosed those animals to be treated with TGFα 57 4 hours prior to challenge with CP. A single dose of CP was administered. Additional doses (as indicated) of TGFα 57 were made at 24 hours, 48 hours, 72 hours and 96 hours after the CP dose. All doses were made by IP injection. Controls were dosed with saline instead of either or both of CP and TGF-α57.
The animals were sacrificed about 4 hours after the last TGF-α57 (or saline) dose. Key organs were removed and spleens were immediately weighed after a clean incision. All the relevant organs were placed in formalin, transported for histopathological analysis, mounted, sectioned, stained and observed. The results of this histological analysis of the spleens for hematopoietic effect and the GI tract (below) provided surprising and unexpected data of the effect of TGF-α57 activity.
TGFα or a peptide from formula I, formula II, formula III, formula IV, formula V, or formula VI having TGFα activity or combinations thereof are also useful for treating mucositis associated intestinal bleeding, dyspepsia caused by with cytotoxic therapy and for improving the barrier function of the GI tract compromised by cytotoxic therapy. The in vivo experiment with seven groups of mice described above for hematopoietic effects noted in spleens also examined the GI tract of these treated mice. […] A single row of intestinal crypt is found at the base of the mucosa. These crypts that lie between adjacent villi are surrounded by the same lamina propria that form the villous cores. Both columnar absorptive cells and goblet cells cover the villous surfaces. The goblet cells contain apical clear vacuoles. […] Specifically, the villus was long and slender. Both absorptive cells and goblet cells were visible at the surface of the villi, and there was an abundant amount of goblet cells on the surface.
A 160×magnification of the intestines of a CP-treated mouse, a normal mouse and a CP treated and TGFα57 treated mouse at the same doses as described above. […] The crypts were irregularly shaped and in had various heights. […] The crypts also appeared normal.
Red cells were visible at the damaged surface indicating intestinal bleeding. […] Globlet cells appeared interspersed, necrotic and fewer in number than normal. […] Specifically, the epithelial cells appeared normal with extended brush borders. The nuclei were very densely stained and elongated.
The histological data is summarized in FIG. 4 that measured average crypt height of the three groups of mice.
An alcian blue staining method permitted differentiation of absorptive cells and goblet cells. Goblet cell mucus is stained a blue color while the absorptive cells remain less stained. […] In the normal intestine each villus extended from the luminal surface to the basal muscularis mucosal surface. Goblet cells were scattered and predominated in the base of the villus whereas columnar absorptive cells lined the luminal surface. […] The injured absorptive and goblet cells were degenerating at the tip of the villi and abundant secretory mucus material was stained in the luminal surface. In the CP/TGF-α mouse, there were an increased number of goblet cells scattered throughout the villi. The intestinal villi appeared normal with elongation. […] The luminal plasma membranes of the villi were well protected by TGF-α treatment. The number of goblet cells was counted on the average unit length of intestine.

TGF-α57: 57 amino acid polypeptide of formula VI: Ser-Leu-Ser-Leu-Pro-Ala-Met-Human TGFα
intestinal structure (cross section histology) (CP 10 mg/kg and 50 μg/kg): intestinal structure was very similar to the normal intestinal structure | number of goblet cells on the average unit length of intestine (alcian blue) (CP 10 mg/kg and 50 μg/kg): increased the number from CP treatment to a higher level than normal intestine | villa surface, higher magnification (CP 10 mg/kg and 50 μg/kg): protection of the villa surface | villi and crypts, 160× magnification (CP 10 mg/kg and 50 μg/kg): normal appearing villi | average crypt height (CP treatment, 50 μg/kg, FIG. 4): more-than-restore crypt height loss
